In assay [1] the test system is NGF-induced bladder hyper-reflexia. Particulars: rats; systemic administration; cited from earlier work.
Assay [2] concerns LPS-induced cystitis. Description: Local bladder inflammation model, Example 2 (instillation), intravital microscopy of the bladder. The format is in vivo, female BALB/c mice. Particulars: LPS 150 μg/ml instilled 30 min, then instillation, BCP 100 mg/kg; for leukocyte rolling in bladder venules: FIG. 10; for leukocyte adhesion in bladder venules: FIGS. 9 and 12; for capillary perfusion quantified through functional capillary density (FCD): FIGS. 11 and 13.

The test system of assay [3] is LPS-induced cystitis. Description: Local bladder inflammation model, Example 4 (oral Beta-C alone or with MSM), intravital microscopy. It counts as in vivo, female BALB/c mice. Particulars: for leukocyte adhesion in bladder venules: FIGS. 14, 16; for capillary perfusion quantified through functional capillary density (FCD): FIGS. 15, 17. The procedure:
Laparotomy was then performed to gain access to the bladder and to have a visual confirmation of bladder instillation success. […] This was then followed by an insertion of a P10 catheter into the urethra. […] LPS solution (150 μg/ml) was slowly instilled and held in the bladder for 30 minutes. The animal was then rotated on the heating pad at a halfway point to ensure that all sides of bladder were equally exposed to LPS.
Animals and local bladder inflammation model were as described hereinabove in Example 2. The groups were as follows:
In the oral gavage groups, the mice were treated with 100 mg/kg beta-C or 100 mg/kg beta-C in 100 mg/kg methylsulfonylmethane (MSM) by gavage. In groups other than the Healthy Animal Control administered oral beta-C, the administration was 60 minutes prior to LPS exposure. LPS (local) was provided as detailed hereinabove in Example 2. Intravesical MSM was provided similar to as detailed hereinabove in Example 1 for DMSO. Leukocyte adherence, leukocyte rolling and functional capillary density were measured using the techniques as described hereinabove in Example 2. Results were assessed using the statistical methods described hereinabove in Example 2.

Assay [4] has as its system LPS-induced cystitis. The experiment in a line: Pain assessment scoring (behavioural), Example 5. It counts as in vivo, female BALB/c mice. The protocol: (§1) Studies were carried out to investigate the anesthetic effect of oral administration of Beta-C. Animals and local bladder inflammation model were as described hereinabove in Example 2. The groups were as follows:
(§2) In the oral gavage groups, the mice were treated with 100 mg/kg beta-C by gavage. In the LPS group administered oral beta-C, the administration was 60 minutes prior to LPS exposure. LPS (local) was provided as detailed hereinabove in Example 2.
Healthy animals were scored behaviourally to set an individual baseline for each specimen. Animals were then anesthetized with isoflurane and given LPS instillation to induce cystitis-like conditions in bladder. After the induction, animals were then woken up and allowed to normally explore/feed themselves in their cage under observation. Changes in behaviour and appearance (i.e. breathing rate, posture, motor activity, eye opening) were then scored again. Each behavioural parameter received a possible maximum score of 10, totaling to a possible maximum of 40. The minimum score possible is a 0, which implies that the parameter is unaffected as a pre-existing condition. Breathing Rate—each decrease in cycle warrants an increase in score. Opening of the eyes—0 complete opening, 5 half opening, 10 fully closed, and 2 and 7 are intermediate positions. Posture—no change is 0, full rounded back OR limp is 10. Intermediate postures gain intermediate scores. Motor activity—activity (exploring, moving, grooming) within 20 seconds. e.g. no movement for 10 seconds (=50%)=5 points; no movement for 2 seconds (=10%)=1 point. The scoring system is based on that reported by Eschalier et al.^37 but has the additional parameter of motor activity.

Assay [5] relates to LPS-induced cystitis. The experiment in a line: Electronic von Frey aesthesiometry, Example 5. The format is in vivo, female BALB/c mice. Particulars: oral BCP 100 mg/kg 60 minutes prior to LPS; T0 vs T1; FIG. 26. The procedure: as §1, §2
This was a quantified pain assessment that measures the amount of force applied in grams, before an animal reacts (e.g. withdraws) to the noxious stimulus. This quantification allows for accurate detection of pain relief effectiveness of a treatment. Healthy animals were scored before any treatments or cystitis induction to set an individual baseline for each specimen. The animals were also scored after the cystitis was induced and the treatment effect could be measured. Each individual animal was compared to itself before the induction, as well as a summarized group comparison was performed.

Assay [6] concerns inflammatory and neuropathic pain. To be noted: mouse models of inflammatory and neuropathic pain; cited from earlier work.
The conditions of assay [7]: compared with procaine; cited from earlier work.
Assay [8] has as its system LPS-induced cystitis. The experiment in a line: Systemic (endotoxemia-induced) bladder inflammation model, intravital microscopy of the bladder. Particulars: LPS 10 mg/kg i.p.
In assay [9] the test system is severe IC. Particulars: patients with severe IC; intravesical DMSO; cited from earlier work.
Assay [10] relates to LPS-induced cystitis. Description: Local (endotoxin-induced) bladder inflammation model, Example 1, intravital microscopy of the bladder. Particulars: LPS 100 μg/ml instilled 30 min, then drug instillation (DMSO 40%).
Assay [11] concerns interstitial cystitis. Particulars: clinical case studies for IC; cited from earlier work.
The subject of assay [12] is interstitial cystitis. Particulars: patients with IC; oral therapy; cited from earlier work.
The mark [13] stands for this setting: healthy animals (no LPS) administered oral Beta-C 100 mg/kg.

Entries after “also recorded” stand apart in the source; their conditions may differ.

Regarding `CCCCC/C=C\C/C=C\C/C=C\C/C=C\CCCC(=O)NCCO` [AEA, N-arachidonoylethanolamine], the “NGF-induced bladder hyper-reflexia and reduction of micturition threshold” value in assay [1] is reported as “attenuated”.
On to `C=C1CC/C=C(\C)CC[C@@H]2[C@@H]1CC2(C)C` [Beta-C, beta-caryophyllene], for which the “leukocyte rolling in bladder venules” value in assay [2] is given as “restored the level of leukocyte levels to that of control animals”; in [8] (100 mg/kg Beta-C injected, vs endotoxemia group, FIG. 2), “did not significantly alter the number of rolling leukocytes”. Besides, the “leukocyte adhesion in bladder venules” value in [2] was “significantly decreased the number of adhering leukocytes back to the level of healthy control animals”; in assay [2] (listed as BCP), “decrease in leukocyte adherence comparable to groups instilled with various levels of DMSO”; in assay [3] (LPS-induced cystitis, oral gavage 100 mg/kg Beta-C (with or without 100 mg/kg MSM) 60 minutes prior to LPS), “significant decrease in the number of adherent leukocytes”; in assay [3] (setting [13]), “did not produce any significant changes in leukocyte adherence”; in assay [8] (100 mg/kg Beta-C injected 15 min after LPS, IVM two hours after treatment, vs LPS, FIG. 1), “significantly decreased the number of adhering leukocytes”. Further, the “capillary perfusion quantified through functional capillary density (FCD)” value in assay [2] is reported as “highest overall values for FCD”; in assay [2] (listed as BCP), “restored perfusion to levels observed in healthy control animals; also recorded: significant improvement in FCD”; in assay [3] (LPS-induced cystitis, oral gavage 100 mg/kg Beta-C (with or without 100 mg/kg MSM) 60 minutes prior to LPS, listed as BCP), “no significant differences were observed in the treatment group; also recorded: did not significantly improve FCD”; in assay [3] (setting [13]), “significant improvement in functional capillary density”; in [3] (healthy animals (no LPS) administered oral Beta-C 100 mg/kg, listed as BCP), “significant improvement in FCD”; in assay [8] (100 mg/kg Beta-C injected, FIG. 3) it was “restored perfusion to levels observed in healthy control animals”. In [4] (oral BCP 100 mg/kg 60 minutes prior to LPS, vs untreated LPS, FIG. 22), the “behavioural results for eye opening” value is given as “significant improvement”. The “behavioural results for motor activity” value in assay [4] (oral BCP 100 mg/kg 60 minutes prior to LPS, vs untreated LPS, FIG. 23) is listed as “Significant improvements”. In [4] (oral BCP 100 mg/kg 60 minutes prior to LPS, vs untreated LPS, FIG. 24), the “behavioural results for posture” value was “Significant improvements”. Besides, the “total composite score of behavioural results (behavioural pain score)” value in assay [4] (oral BCP 100 mg/kg 60 minutes prior to LPS, vs untreated LPS, FIG. 25) is reported as “significant reduction in behavioural pain score”. Further, the “behavioural results for breathing rate” value in assay [4] (oral Beta-C 100 mg/kg 60 minutes prior to LPS, T1 vs untreated LPS, FIG. 21) is on record as “significant reduction in breathing rate”. Further, the “amount of force applied via electronic von Frey aesthesiometer before a response (withdrawal threshold)” value in [5] is “significant improvement in withdrawal threshold”. Also, in [6], the “analgesic and anti-inflammatory effects” value was “analgesic and anti-inflammatory effects”. Besides, the local anesthetic actions entry in assay [7] is “dose-dependent local anesthetic actions comparable to procaine”.
With `C[S+](C)[O-]` [DMSO, Dimethyl sulfoxide], the “leukocyte rolling in bladder venules” value is “did not improve leukocyte rolling” in [2] and “did not show any significant difference when compared to the endotoxemia group” in assay [10] (FIG. 7). For the same compound, the “leukocyte adhesion in bladder venules” value in assay [2] is “retained a high level of activated leukocytes”; in assay [10] (FIG. 6) it was “did not significantly decrease leukocyte adherence”. Moreover, the “capillary perfusion quantified through functional capillary density (FCD)” value is recorded as “did improve perfusion, it did not return perfusion to the levels observed in healthy control animals” in [2] and “did improve perfusion, it did not return perfusion to the levels observed in healthy control animals” in [10] (FIG. 8). Besides, the treatment failure rate entry in assay [9] was “high failure rate”.
For `CS(C)(=O)=O` [Methylsulfonylmethane], in [11], the “effective treatment, number of patients suffering from IC” value is recorded as 4 out of 6.
With `CCCCCCCCCCCCCCCC(=O)NCCO` [PEA, N-palmitoylethanolamide], the “NGF-induced bladder hyper-reflexia and reduction of micturition threshold” value in [1] is recorded as “attenuated”.
pentosan polysulfate [PPS]: the “effect of PPS treatment (proportion of patients)” value in [12] is reported as “limited to only a quarter of patients”.

These data come from patent US10973777B2, “Methods for treatment of interstitial cystitis” (Panag Pharma Inc., priority 2017, dated 2021).
